Source: patent US8853424B2 (Japan Science and Technology Agency, priority 2008, dated 2014)

How the values were obtained:
transglutaminase (TGase) = experiment: Measurement of TG (TGase inhibitory activity, monodansyl cadaverine / N,N-dimethylcasein fluorescence, FDSS 3000); assay type: biochemical
Protocol: For example, the method described in the Example can be performed.
The compound of the present invention (10 mM, 1 μL) was taken in a 96-well plate (Nunc, 96 Well Black Plate with Clear Bottom), an enzyme reaction solution (100 mM HEPES-NaOH, pH 7.5, 1 mM CaCl2, 20 μM monodansyl cadaverine, 0.05 mg/mL N,N-dimethylcasein, 5 μg/mL TGase) (0.1 ml) was added and the mixture was sufficiently mixed without making foams. The mixture was set on a fluorescence drug screening system FDSS 3000 (Hamamatsu Photonics K.K.), and changes in the fluorescence wavelength per unit time at 340 nm were measured, based on which the TGase inhibitory activity of the compound of the present invention was calculated. As a control, change in the fluorescence when 1 μL of DMSO (dimethyl sulfoxide) was added instead of the compound of the present invention was taken as 100, and TG50 was when the activity decreased to half due to the compound of the present invention.

[1] = system: Truncated N-terminal huntington 150 Q-EGFP-Neuron 2a cells; experiment: Measurement of x-Fold (polyglutamine aggregation inhibitory activity); assay type: cell-based
Protocol: In the present invention, the polyglutamine aggregation inhibitory activity (x-Fold) can be measured, for example, by the method described in the Example.
The number of the aggregated cells, and the total number of cells were counted by Array Scan V T1 (manufactured by Cellomics, Pittuburg, USA), and the ratio of the aggregated cells to the total number of cells was determined (x-Fold). […]

[2] = TGase activity with compound (10 mM, 1 μL in 0.1 ml enzyme reaction solution), DMSO control taken as 100
[3] = TGase inhibitory activity value, Table 1
[4] = polyglutamine aggregation inhibitory activity, Table 1
[5] = ratio of aggregated cells to total number of cells, compound 20 μM, 20 hr, almost 1 without compound, smaller = stronger inhibition

Row | Compound | TGase activity remaining (% of DMSO control = 100) (transglutaminase (TGase); [2]) | TGase activity remaining (% of DMSO control = 100) (transglutaminase (TGase); [3]) | x-Fold [1, 4] | x-Fold [1, 5] | TGase activity remaining (% of DMSO control = 100) (transglutaminase (TGase); TGase inhibitory activity value, Table 1, listed as 871) | x-Fold ([1]; polyglutamine aggregation inhibitory activity, Table 1, listed as 871) | TGase activity remaining (% of DMSO control = 100) (transglutaminase (TGase); TGase inhibitory activity value, Table 1, listed as 611) | x-Fold ([1]; polyglutamine aggregation inhibitory activity, Table 1, listed as 611)
1 | Cc1ccc(B(OCCN)c2ccc(B(OCCN)c3ccc(C)c(Cl)c3)cc2)cc1Cl [Example 128, 1,4-bis(3-chloro-4-methylphenyl-2-aminoethoxyboryl)benzene] | 143 | 143 | 0.93 | 0.93 |  |  |  | 
2 | NCC(=O)OB(c1ccccc1)c1ccc(Oc2ccc(B(OC(=O)CN)c3ccccc3)cc2)cc1 [Example 129, di((phenylglycine-O,N boryl)phenyl)ether] | 101 |  |  | 0.78 |  |  |  | 
3 | OB(c1ccccc1)c1cc(B(O)c2ccccc2)cc(B(O)c2ccccc2)c1 [Example 130, 1,3,5-tri(phenylhydroxyboryl)benzene] | 116 | 116 | 0.85 | 0.85 |  |  |  | 
4 | c1ccc(B(OC(c2ccccc2)c2ccccn2)c2ccccc2COCc2ccccc2B(OC(c2ccccc2)c2ccccn2)c2ccccc2)cc1 (centres unmarked) [Example 133, (2-pyridyl-phenylmethoxyphenylboryl 2-benzyl)ether] | 106 | 106 | 1.00 | 1.00 |  |  |  | 
5 | FC(F)(F)c1ccc(C(OB(c2ccccc2)c2ccccc2COCc2ccccc2B(OC(c2ccc(C(F)(F)F)cc2)c2ccccn2)c2ccccc2)c2ccccn2)cc1 (centres unmarked) [Example 134, (2-pyridyl-4-trifluoromethylphenylmethoxyphenylboryl 2-benzyl)ether] | 94 | 94 | 0.92 | 0.92 |  |  |  | 
6 | OB(c1ccccc1)c1ccc(B(O)c2ccccc2)c2ccccc12 [Example 135, 1,4-bis(phenylhydroxyboryl)naphthalene] | 99 | 99 | 1.03 | 1.03 |  |  |  | 
7 | NC(=O)CC(N)C(=O)OB(c1ccccc1)c1ccccc1 (centres unmarked) [Example 136, diphenyl(asparaginate-O,N)borane] | 96 |  |  | 0.98 | 96 | 0.98 |  | 
8 | FC(F)(F)c1ccc(C(OB(c2ccccc2)c2ccc(COCc3ccc(B(OC(c4ccc(C(F)(F)F)cc4)c4ccccn4)c4ccccc4)cc3)cc2)c2ccccn2)cc1 (centres unmarked) [Example 138, bis(2-pyridyl-4-trifluoromethylphenylmethoxyphenylboryl 4-benzyl)ether] | 96 |  |  | 0.99 |  |  |  | 
9 | Cc1cc(B(O)c2ccc(COCc3ccc(B(O)c4ccc(Cl)c(C)c4)cc3)cc2)ccc1Cl [Example 139, bis(4-chloro-3-methylphenylhydroxyboryl 4-benzyl)ether] | 122 |  |  | 0.88 |  |  | 122 | 0.88
10 | OB(c1ccccc1)c1ccc(-c2ccc(B(O)c3ccccc3)cc2)cc1 [Example 140, 4,4′-phenylhydroxyboryl 4-biphenyl] | −72 | −72 | 0.85 | 0.85 |  |  |  | 
11 | OB(c1ccc(COCc2ccc(B(O)c3cccc4ccccc34)cc2)cc1)c1cccc2ccccc12 [Example 141, bis(4,4′-(1-naphthylhydroxyboryl)benzyl)ether] | 97 | 97 | 0.92 | 0.92 |  |  |  | 
12 | OB(c1ccc(F)cc1)c1ccc(COCc2ccc(B(O)c3ccc(F)cc3)cc2)cc1 [Example 142, bis(4-fluorophenylhydroxyboryl 4-benzyl)ether] | 88 | 88 | 0.24 | 0.24 |  |  |  | 
